Measured values from paper PMC8344021, “Discovery of Small Molecule Bak Activator for Lung Cancer Therapy” (Theranostics, 2021).

Tests used:
[1] = test system: other Bcl2 family members (Bax, Bcl2, Bcl-XL, Bcl-w and Mcl-1); experiment: Competitive fluorescence polarization (FP) assay, other Bcl2 family members; assay type: binding, human
Text: To confirm the binding of BKA-073 with Bak, we first conducted a competitive fluorescence polarization (FP) assay using purified human Bak protein, fluorescent Bak BH3 domain peptide, and BKA-073 as described, [37]-[40]. […] There are multiple amino acid differences in the BH3 domains between Bak and other Bcl2 family members, which helps to explain why BKA-073 only binds to Bak but not to other Bcl2 family members (i.e. Bax, Bcl2, Bcl-XL, Bcl-w and Mcl-1). In addition to the FP assay, isothermal titration calorimetry (ITC) was also employed to measure Bak/BKA-073 binding. […] In addition to human Bak/BKA-073 binding, we measured mouse Bak/BKA-073 binding using ITC.
(1 x 10^5 cells) was transferred to a 5 ml culture tube, followed by the addition of 5 μl of FITC Annexin V and 5 μl propidium iodide (PI). […] Samples were analyzed by flow cytometry (BD FACSCantoTMII, BD Biosciences, San Jose, CA). ∆% cell death was calculated with the formula: (% cell death treated - % cell death non-treated) as described […]
Fluorescence polarization (FP) assay
Fluorescence polarization assay was carried out as described previously. […] The FP values (in millipolarization units) were measured using a fluorescence microplate reader at 485/530 nm (Gemini XPS, Molecular Devices). Data analysis and inhibit ory constant (Ki) value was determined by GraphPad prism software as described. […]

[2] = test system: LSL-KRAS G12D LKB1 fl/fl (KL) mice lung tumors; experiment: Mutant KRAS-driven lung cancer GEMM (KL mice); assay type: in vivo, mouse; conditions: 15 mg/kg/d i.p.
Procedure: LSL-KRAS^G12D LKB1^fl/fl (KL) were generated as previously described [30]-[33]. All studies were performed on protocols approved by the Emory University IACUC. Six weeks after cre-adenovirus infection, KL mice were treated with BKA-073 intraperitoneally (i.p) for 48 days. Mice were euthanized with CO2 asphyxiation. After lung perfusion with PBS, the left lung lobes were harvested from mice in control and BKA-073 treated groups and immediately fixed in 10% neutral buffered formalin (Fisher Scientific, Kalamazoo, MI), horizontally cut into three equal parts and embedded in paraffin blocks. Three parts of lung tissues representing different regions of the lung were vertically put into paraffin blocks for hematoxylin-eosin (H&E) staining. Lung tissue samples were sectioned at 3 µm three times for placement of slides and stained with H&E. H&E stained samples were scanned using Nano Zoomer 2.0-HT (Hamamatsu, Japan) and images were analyzed using ImageScope viewing software (Leica Biosystems, Buffalo Grove, IL). Tumor numbers were counted under a microscope and tumor area was quantified using Openlab modular imaging software (PerkinElmer, Waltham, MA) as previously described, [32].
KRAS is the most commonly mutated oncogene, yet no effective targeted therapies exist for KRAS-mutant cancers. […] Since BKA-073 is able to induce apoptosis by activation of Bak via facilitating its oligomerization in vitro and in vivo (Figures 1, 2 and 4), we were interested in testing whether BKA-073 is effective for the treatment of mutant KRAS-driven cancer. To assess the potency of BKA-073 in KRAS mutant-driven lung cancer, lox-stop-lox (LSL)-KRAS^G12D LKB1^fl/fl (i.e. KL) mice were generated and bred out as previously described, [31], [50], [51]. These mice contain a KRAS^G12D LSL knock-in allele and a floxed allele of LKB1 (LKB1^fl/fl), [31]. Primary lung adenocarcinoma was detectable as early as 6 weeks after intranasal administration of 5×10^6 pfu adenovirus expressing Cre recombinase (AdeCre) in KRAS^G12D LKB1^fl/fl (KL) mice. […] After treatment for 48 days, KL mice were euthanized with CO2 asphyxiation. Lungs with tumor and normal lung tissues were collected for further analysis. To quantify tumor burden and tumor multiplicity in mice, H&E-stained lungs were imaged with morphometric software to quantify the surface area composed of tumor as opposed to normal tissue of representative cross-sections of each lung lobe for each mouse as previously described [31]-[33]. […] There were 4 deaths out of 6 mice in the control group versus 2 death out of 6 mice in the BKA-073 treatment group […], calculated up to 48 days before euthanization.

COc1ccc2nc3ccccc3c(NCCNCC(C)O)c2c1 (centres unmarked) [BKA-073]
binding affinity with other Bcl2 family members [1]: very low binding affinity
tumor burden in the lung ([2]; 48 days): significant reduction
tumor multiplicity in the lung ([2]; 48 days): significant reduction
deaths out of 6 mice ([2]; up to 48 days, control 4 of 6, p < 0.01): 2
survival ([2]; vs control group): significantly prolonged survival
